# Data taken from patent publication US20140128402A1, “PHARMACEUTICAL COMBINATION” (IPCA Laboratories Limited, priority 2011, published 2014).
# How the values were obtained:
# Assay type in all cases: in vivo, Wistar rats
# [1] = tested on: STZ-induced diabetic rats; experiment: Study No 2: body weight, water intake and food intake in STZ-induced diabetic rats; conditions: for AVERAGE FOOD INTAKE / AVERAGE WATER INTAKE / Body Weight: oral
# [2] = tested on: STZ induced diabetic rats; experiment: Study No 2: blood glucose in STZ induced diabetic rats (HCQ with vildagliptin and saxagliptin); conditions: for Plasma glucose concentration: oral
# Method: In this experiment 96 Wistar rats weighing 150-200 g of either sex were divided randomly into 16 groups consisting of 6 rats each. The study drugs were dissolved in water/suspended in vehicle [0.1% w/v suspension of Tween 80 and carboxymethylcellulose (CMC) in water] and administered orally for 28 days. Group 1 (normal vehicle control) consisted of normal rats that neither received Streptozotocin (STZ) nor any test drug; Group 2 served as Streptozotocin induced diabetic control [Diabetes was induced in rats by single administration of Streptozotocin (55 mg/kg/i.p.) dissolved in 0.1 M-citrate buffer, pH 4.5]. Forty-eight hours later, blood samples were collected and glucose levels were determined to confirm the development of diabetes. Only animals showing hyperglycaemia (blood glucose levels>250 mg/dl) were considered as diabetic and received vehicle orally; Group 3 was diabetic rats treated with hydroxychloroquine (HCQ) (22.5 mg/kg); Group 4 was diabetic rats treated with HCQ (45 mg/kg), Group 5 was diabetic rats treated with vildagliptin (VG) 6 mg/kg; Group 6 was diabetic rats treated with VG 12 mg/kg; Group 7 was diabetic rats treated with HCQ 22.5 mg/kg+VG 12 mg/kg and Group 8 was diabetic rats treated with combination of HCQ 45 mg/kg and VG 6 mg/kg; Group 9 was diabetic rats treated with saxagliptin (SG) 0.3 mg/kg; Group 10 was diabetic rats treated with Saxagliptin (SG) 0.6 mg/kg; Group 11 was diabetic rats treated with combination of HCQ 45 mg/kg+SG 0.3 mg/kg; Group 12 was diabetic rats treated with combination of HCQ 22.5 mg/kg+SG 0.6 mg/kg; Group 13 was diabetic rats treated with combination of HCQ 22.5 mg/kg and VG 6 mg/kg; Group 14 was diabetic rats treated with combination of HCQ 45 mg/kg and VG 12 mg/kg; Group 15 was diabetic rats treated with combination of HCQ 22.5 mg/kg+SG 0.3 mg/kg; Group 16 was diabetic rats treated with combination of HCQ 45 mg/kg+SG 0.6 mg/kg.
# Blood glucose level was measured in normal and experimental rats at 0, 7th, 14th, 21st and 28th day of administration.
# [3] = tested on: STZ-induced diabetic rats; experiment: Study No 2: biochemical parameters in STZ-induced diabetic rats; conditions: for Creatinine / HbA1c / Total Protein / Urea: after 28 days, oral
# [4] = Day 0, HCQ 22.5, VG 6, SG 0.3 mg/kg alone, HCQ+VG 22.5+6, HCQ+SG 22.5+0.3 mg/kg/day
# [5] = Day 0, HCQ 45, VG 12, SG 0.6 mg/kg alone, HCQ+VG 45+12, HCQ+SG 45+0.6 mg/kg/day
# [6] = Day 7, HCQ 22.5, VG 6, SG 0.3 mg/kg alone, HCQ+VG 22.5+6, HCQ+SG 22.5+0.3 mg/kg/day
# [7] = Day 7, HCQ 45, VG 12, SG 0.6 mg/kg alone, HCQ+VG 45+12, HCQ+SG 45+0.6 mg/kg/day
# [8] = Day 14, HCQ 22.5, VG 6, SG 0.3 mg/kg alone, HCQ+VG 22.5+6, HCQ+SG 22.5+0.3 mg/kg/day
# [9] = Day 14, HCQ 45, VG 12, SG 0.6 mg/kg alone, HCQ+VG 45+12, HCQ+SG 45+0.6 mg/kg/day
# [10] = Day 21, HCQ 22.5, VG 6, SG 0.3 mg/kg alone, HCQ+VG 22.5+6, HCQ+SG 22.5+0.3 mg/kg/day
# [11] = Day 21, HCQ 45, VG 12, SG 0.6 mg/kg alone, HCQ+VG 45+12, HCQ+SG 45+0.6 mg/kg/day
# [12] = Day 28, HCQ 22.5, VG 6, SG 0.3 mg/kg alone, HCQ+VG 22.5+6, HCQ+SG 22.5+0.3 mg/kg/day
# [13] = Day 28, HCQ 45, VG 12, SG 0.6 mg/kg alone, HCQ+VG 45+12, HCQ+SG 45+0.6 mg/kg/day
# [14] = Day 0, HCQ 22.5, VG 6, SG 0.3 mg/kg alone, HCQ+VG 22.5+6, HCQ+SG 22.5+0.3 mg/kg
# [15] = Day 0, HCQ 45, VG 12, SG 0.6 mg/kg alone, HCQ+VG 45+12, HCQ+SG 45+0.6 mg/kg
# [16] = Day 7, HCQ 22.5, VG 6, SG 0.3 mg/kg alone, HCQ+VG 22.5+6, HCQ+SG 22.5+0.3 mg/kg
# [17] = Day 7, HCQ 45, VG 12, SG 0.6 mg/kg alone, HCQ+VG 45+12, HCQ+SG 45+0.6 mg/kg
# [18] = Day 14, HCQ 22.5, VG 6, SG 0.3 mg/kg alone, HCQ+VG 22.5+6, HCQ+SG 22.5+0.3 mg/kg
# [19] = Day 14, HCQ 45, VG 12, SG 0.6 mg/kg alone, HCQ+VG 45+12, HCQ+SG 45+0.6 mg/kg
# [20] = Day 21, HCQ 22.5, VG 6, SG 0.3 mg/kg alone, HCQ+VG 22.5+6, HCQ+SG 22.5+0.3 mg/kg
# [21] = Day 21, HCQ 45, VG 12, SG 0.6 mg/kg alone, HCQ+VG 45+12, HCQ+SG 45+0.6 mg/kg
# [22] = Day 28, HCQ 22.5, VG 6, SG 0.3 mg/kg alone, HCQ+VG 22.5+6, HCQ+SG 22.5+0.3 mg/kg
# [23] = Day 28, HCQ 45, VG 12, SG 0.6 mg/kg alone, HCQ+VG 45+12, HCQ+SG 45+0.6 mg/kg
# [24] = HCQ 22.5, VG 6, SG 0.3 mg/kg alone, HCQ+VG 22.5+6, HCQ+SG 22.5+0.3 mg/kg/day
# [25] = HCQ 45, VG 12, SG 0.6 mg/kg alone, HCQ+VG 45+12, HCQ+SG 45+0.6 mg/kg/day
# [26] = monotherapies, all the tested dose levels except HCQ (22.5 mg/kg), p≦0.05
smiles,measurement,setting,value
"N#C[C@@H]1CCCN1C(=O)CNC12CC3CC(CC(O)(C3)C1)C2 [VG, Vildagliptin]",AVERAGE FOOD INTAKE,[1]; [4],11.40 g
same,AVERAGE WATER INTAKE,[1]; [4],25.00 mL
same,Body Weight,[1]; [4],195 ± 7.18 g
same,AVERAGE FOOD INTAKE,[1]; [5],11.90 g
same,AVERAGE WATER INTAKE,[1]; [5],24.35 mL
same,Body Weight,[1]; [5],197.5 ± 6.35 g
same,AVERAGE FOOD INTAKE,[1]; [6],13.00 g
same,AVERAGE WATER INTAKE,[1]; [6],22.12 mL
same,Body Weight,[1]; [6],179.17 ± 11.27 g
same,AVERAGE FOOD INTAKE,[1]; [7],13.50 g
same,AVERAGE WATER INTAKE,[1]; [7],22.19 mL
same,Body Weight,[1]; [7],189 ± 3.52 g
same,AVERAGE FOOD INTAKE,[1]; [8],12.10 g
same,AVERAGE WATER INTAKE,[1]; [8],21.32 mL
same,Body Weight,[1]; [8],182.83 ± 12.66 g
same,AVERAGE FOOD INTAKE,[1]; [9],12.00 g
same,AVERAGE WATER INTAKE,[1]; [9],22.11 mL
same,Body Weight,[1]; [9],187.67 ± 6.38 g
same,AVERAGE FOOD INTAKE,[1]; [10],12.90 g
same,AVERAGE WATER INTAKE,[1]; [10],25.12 mL
same,Body Weight,[1]; [10],185.67 ± 11.86 g
same,AVERAGE FOOD INTAKE,[1]; [11],13.05 g
same,AVERAGE WATER INTAKE,[1]; [11],26.13 mL
same,Body Weight,[1]; [11],186.5 ± 8.83 g
same,AVERAGE FOOD INTAKE,[1]; [12],14.33 g
same,AVERAGE WATER INTAKE,[1]; [12],26.31 mL
same,Body Weight,[1]; [12],189.5 ± 11.81 g
same,AVERAGE FOOD INTAKE,[1]; [13],14.30 g
same,AVERAGE WATER INTAKE,[1]; [13],25.71 mL
same,Body Weight,[1]; [13],185.67 ± 11.69 g
same,body weight as compared to diabetic control group,"[1]; monotherapies, p≦0.05",reduction was significantly less
same,Plasma glucose concentration,[2]; [14],296 ± 21.59 mg/dL
same,Plasma glucose concentration,[2]; [15],288 ± 11.58 mg/dL
same,Plasma glucose concentration,[2]; [16],242.17 ± 40.58 mg/dL
same,Plasma glucose concentration,[2]; [17],227 ± 40.57 mg/dL
same,Plasma glucose concentration,[2]; [18],199.83 ± 35.33 mg/dL
same,Plasma glucose concentration,[2]; [19],188.83 ± 34.23 mg/dL
same,Plasma glucose concentration,[2]; [20],191.33 ± 22.46 mg/dL
same,Plasma glucose concentration,[2]; [21],173.5 ± 15.6 mg/dL
same,Plasma glucose concentration,[2]; [22],182.67 ± 33.01 mg/dL
same,Plasma glucose concentration,[2]; [23],167.5 ± 9.12 mg/dL
same,blood glucose levels as compared to diabetic control group,"[2]; alone at therapeutic equivalent doses, day 28",significant improvement
same,Creatinine,[3]; [24],1.78 ± 0.14 mg/dL
same,HbA1c,[3]; [24],10.76 ± 0.97 %
same,Total Protein,[3]; [24],7.08 ± 0.55 gm/dl
same,Urea,[3]; [24],21.48 ± 4.35 mg/dL
same,Creatinine,[3]; [25],1.69 ± 0.21 mg/dL
same,HbA1c,[3]; [25],9.97 ± 0.95 %
same,Total Protein,[3]; [25],7.15 ± 0.19 gm/dl
same,Urea,[3]; [25],20.23 ± 1.89 mg/dL
same,HbA1c levels as compared to diabetic control,"[3]; all tested doses, 28 days, p≦0.05",significantly (p≦0.05) reduced
same,total protein level as compared to the diabetic control group,"[3]; monotherapies at all doses, 28 days, p≦0.05",significant rise
same,creatinine levels as compared to diabetic control group,[3]; [26],significant reduction
same,urea levels as compared to diabetic control group,[3]; [26],significant reduction
"N#C[C@@H]1C[C@@H]2C[C@@H]2N1C(=O)[C@@H](N)C12CC3CC(CC(O)(C3)C1)C2 [SG, Saxagliptin]",AVERAGE FOOD INTAKE,[1]; [4],12.13 g
same,AVERAGE WATER INTAKE,[1]; [4],23.71 mL
same,Body Weight,[1]; [4],208.33 ± 6.15 g
same,AVERAGE FOOD INTAKE,[1]; [5],12.45 g
same,AVERAGE WATER INTAKE,[1]; [5],24.86 mL
same,Body Weight,[1]; [5],211 ± 7.38 g
same,AVERAGE FOOD INTAKE,[1]; [6],14.00 g
same,AVERAGE WATER INTAKE,[1]; [6],21.12 mL
same,Body Weight,[1]; [6],199.5 ± 7.69 g
same,AVERAGE FOOD INTAKE,[1]; [7],14.45 g
same,AVERAGE WATER INTAKE,[1]; [7],21.11 mL
same,Body Weight,[1]; [7],203.17 ± 7.47 g
same,AVERAGE FOOD INTAKE,[1]; [8],12.54 g
same,AVERAGE WATER INTAKE,[1]; [8],21.67 mL
same,Body Weight,[1]; [8],197.83 ± 8.06 g
same,AVERAGE FOOD INTAKE,[1]; [9],12.00 g
same,AVERAGE WATER INTAKE,[1]; [9],21.89 mL
same,Body Weight,[1]; [9],201.17 ± 8.52 g
same,AVERAGE FOOD INTAKE,[1]; [10],13.05 g
same,AVERAGE WATER INTAKE,[1]; [10],25.17 mL
same,Body Weight,[1]; [10],196.33 ± 8.36 g
same,AVERAGE FOOD INTAKE,[1]; [11],13.26 g
same,AVERAGE WATER INTAKE,[1]; [11],26.00 mL
same,Body Weight,[1]; [11],199.83 ± 8.35 g
same,AVERAGE FOOD INTAKE,[1]; [12],14.25 g
same,AVERAGE WATER INTAKE,[1]; [12],25.19 mL
same,Body Weight,[1]; [12],193.83 ± 8.13 g
same,AVERAGE FOOD INTAKE,[1]; [13],14.00 g
same,AVERAGE WATER INTAKE,[1]; [13],25.12 mL
same,Body Weight,[1]; [13],198 ± 8.74 g
same,Plasma glucose concentration,[2]; [14],288.83 ± 26.19 mg/dL
same,Plasma glucose concentration,[2]; [15],285.5 ± 33.58 mg/dL
same,Plasma glucose concentration,[2]; [16],246.5 ± 4.89 mg/dL
same,Plasma glucose concentration,[2]; [17],146.5 ± 4.89 mg/dL
same,Plasma glucose concentration,[2]; [18],226.33 ± 12.36 mg/dL
same,Plasma glucose concentration,[2]; [19],138.5 ± 7.23 mg/dL
same,Plasma glucose concentration,[2]; [20],194 ± 38.79 mg/dL
same,Plasma glucose concentration,[2]; [21],137.5 ± 9.44 mg/dL
same,Plasma glucose concentration,[2]; [22],194.17 ± 17.17 mg/dL
same,Plasma glucose concentration,[2]; [23],161 ± 9.67 mg/dL
same,Creatinine,[3]; [24],1.89 ± 0.23 mg/dL
same,HbA1c,[3]; [24],10.79 ± 1.05 %
same,Total Protein,[3]; [24],6.55 ± 0.37 gm/dl
same,Urea,[3]; [24],22.74 ± 2.71 mg/dL
same,Creatinine,[3]; [25],1.81 ± 0.27 mg/dL
same,HbA1c,[3]; [25],9.65 ± 1.51 %
same,Total Protein,[3]; [25],6.62 ± 0.49 gm/dl
same,Urea,[3]; [25],21.26 ± 2.41 mg/dL
